Results published in US12415771B2, “Compounds for the treatment of neuromuscular disorders” (NMD PHARMA A/S, priority 2019, dated 2025).
Like-named read-outs stand apart in the source and are kept apart here.

Legend:
[1] = test system: isolated rat soleus muscles; assay: Recovery of nerve-stimulated contractile force in isolated rat soleus nerve-muscle preparation exposed to tubocurarine; details: for activation at 50 µM: 40 min, read-out: Point increase (%) of initial force that was restored
Experimental: Recovery of force is quantified as the percentage of the force prior to tubocurarine that is recovered by the compound.
The current disclosure relates to compounds that inhibit CIC-1 ion channels and increase muscle excitability and thereby improve muscle function in clinical conditions where muscle activation is failing. Such conditions result in loss of contractile function of skeletal muscle, weakness and excessive fatigue. In this series of experiments the compounds were tested for their ability to restore contractile function of isolated rat muscle when the neuromuscular transmission had been compromised akin to neuromuscular disorders.
Experimentally, soleus muscles from 4-5 wk old rats were isolated with the motor nerve remaining attached. The nerve-muscle preparations were mounted in experimental setups that enabled electrical stimulation of the motor nerve. Stimulation of the motor nerve led to activation of the muscle fibres and ensuing force production that was recorded.
After mounting the nerve-muscle preparation in the experimental setup, the contractile function of the muscle was initially assessed under the control conditions (FIG. 2A). […] The experimental condition mimics the failing neuromuscular transmission in a range of neuromuscular disorders. After addition of tubocurarine the contractile force declined over the next 90 mins to 10-50% of the control force. 50 μM of the test compound was then added and the contractile force recovered despite the continued presence of tubocurarine. To quantify the ability of the compound to restore force the percentage of the initial force that was restored was determined after 40 mins of compound exposure (FIG. 2B) and the point increase is reported in Table 3.

[2] = test system: female Lewis rats; assay: In situ isometric hindlimb force in anaesthetised rats under partial neuromuscular block by Cisatracurium; format: in vivo; details: Rattus norvegicus, iv, read-out: increase in tetanic force
Experimental: Isometric hindlimb force was measured in 12-week old female Lewis rats in the presence and absence of compound.
Rats were placed under anesthesia with isoflurane (2-4%), intubated and subsequently connected to a micro ventilator (Microvent 1, Hallowell EMC, US). Two stimulation electrodes were inserted through the skin to stimulate the sciatic nerve. A small incision was made proximal to the ankle, to expose the Achilles tendon, which was tied by cotton string, and connected to a force transducer (Fort250, World Precision Instruments) with adjustable position (Vernier control). The Achilles tendon was then cut distal to the attached cotton string. The rat was placed on a heated pad, and to prevent movement artefacts from contraction of the ankle dorsiflexors, the foot was fixated by tape on a footplate.
Muscle contractile properties were assessed by applying an electrical current (under supramaximal voltage conditions) to the nerve and recording the force generated by the muscle. The muscle was stretched until maximal force was obtained, when assessed by 2 Hz stimulation. Isometric force was measured every 30 seconds at 12 Hz (Twitch), 10 pulses, and at every 5 minutes at 80 Hz (Tetanic) for 1 second (80 pulses). This stimulation pattern was employed throughout the experiment, expect in few cases where 80 Hz stimulation was replaced by 12 Hz (10 pulses). […] When the level of neuromuscular inhibition was stable, the test article was injected i.v. at the chosen concentration. The effect of test article was assessed on its ability to increase force generated from the stimulation pattern applied. The effect was assessed in the ability to increase force per se (tetanic, 80 Hz, stimulation), and the ratio between individual twitch peaks (12 Hz stimulation). The effect was monitored for at least 1 hour after injection of test article. In addition, the time from injection of test article to maximal effect on force (both twitch and tetanic) was noted and the time for the effect to disappear (return to baseline), if possible. When appropriate the infusion of neuromuscular blocking agent was ceased, with the stimulation pattern continued, and the return of force to control levels was monitored. Animals were sacrificed by cervical dislocation while still fully sedated.

[3] = target: T1, CIC-1 ion channel (Rattus norvegicus, UniProt P35524); assay: Electrophysiological measurement (Gm, three micro-electrode technique) of compound inhibition of CIC-1 in rat soleus muscle fibres; format: cell-based; details: whole rat soleus muscle, Gm at four increasing concentrations, approx. 30° C., mean ± spread
T1 construct: from tissue; host or cells: intact soleus muscle of 12-14 week old Wistar rats
T1 sequence (P35524 1-994): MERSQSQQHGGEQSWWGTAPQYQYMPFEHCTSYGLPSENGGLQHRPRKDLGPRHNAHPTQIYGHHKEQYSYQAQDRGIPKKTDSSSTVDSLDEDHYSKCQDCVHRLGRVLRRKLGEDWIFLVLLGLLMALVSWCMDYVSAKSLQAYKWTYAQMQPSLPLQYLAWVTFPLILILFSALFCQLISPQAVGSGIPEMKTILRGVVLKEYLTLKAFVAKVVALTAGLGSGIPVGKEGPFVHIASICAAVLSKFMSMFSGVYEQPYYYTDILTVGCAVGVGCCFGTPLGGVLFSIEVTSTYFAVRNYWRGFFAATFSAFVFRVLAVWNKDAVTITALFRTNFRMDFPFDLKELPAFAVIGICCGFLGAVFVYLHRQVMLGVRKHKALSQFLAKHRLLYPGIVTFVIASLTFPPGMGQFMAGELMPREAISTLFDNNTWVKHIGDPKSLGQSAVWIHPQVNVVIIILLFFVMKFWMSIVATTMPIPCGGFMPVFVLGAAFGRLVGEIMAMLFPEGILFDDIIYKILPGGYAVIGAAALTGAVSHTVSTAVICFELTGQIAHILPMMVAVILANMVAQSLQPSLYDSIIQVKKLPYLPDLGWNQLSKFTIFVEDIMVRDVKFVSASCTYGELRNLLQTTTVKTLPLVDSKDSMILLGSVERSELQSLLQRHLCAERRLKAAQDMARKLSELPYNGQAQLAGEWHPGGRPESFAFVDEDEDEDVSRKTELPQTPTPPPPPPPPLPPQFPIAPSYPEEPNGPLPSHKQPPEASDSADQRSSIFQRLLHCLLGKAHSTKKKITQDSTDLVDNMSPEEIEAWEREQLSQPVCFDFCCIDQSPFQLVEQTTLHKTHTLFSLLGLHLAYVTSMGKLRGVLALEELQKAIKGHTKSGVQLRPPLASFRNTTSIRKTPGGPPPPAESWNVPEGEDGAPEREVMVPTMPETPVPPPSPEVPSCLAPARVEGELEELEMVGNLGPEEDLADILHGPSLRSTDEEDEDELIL

[4] = 50 μM test compound, after 40 mins exposure, 115 nM tubocurarine for 90 mins, rat soleus

Compound: C[C@H](Oc1ccc(Br)cc1C(C)(F)F)C(=O)O [Compound A-4, (2S)-2-[4-bromo-2-(1,1-difluoroethyl)phenoxy]propanoic acid]
- activation at 50 µM [1, 4]: 34%
- change in vivo at 21.6 mg/kg ([2]; 21.6 mg/kg i.v., 80 Hz stimulation, Cisatracurium block): 34%

Compound: CCC(F)(F)c1cc(Cl)ccc1O[C@@H](C)C(=O)O [Compound A-5, (2S)-2-[4-chloro-2-(1,1-difluoropropyl)phenoxy]propanoic acid]
- EC50 [3]: 4 ± 2.1 µM
- activation at 50 µM ([1]; Rattus norvegicus): 53%
- change in vivo at 10.5 mg/kg [2]: 47%

Compound: CCC(F)(F)c1cc(Br)ccc1OCC(=O)O [Compound A-6, 2-[4-bromo-2-(1,1-difluoropropyl)phenoxy]acetic acid]
- EC50 [3]: 7.5 ± 2.9 µM
- activation at 50 µM [1, 4]: 35%

Compound: CC(C)C(F)(F)c1cc(Br)ccc1O[C@@H](C)C(=O)O [Compound A-7, (2S)-2-[4-bromo-2-(1,1-difluoro-2-methylpropyl)phenoxy]propanoic acid]
- EC50 [3]: 3.5 ± 0.7 µM
- activation at 50 µM [1, 4]: 42%
- change in vivo at 25.1 mg/kg ([2]; 25.1 mg/kg i.v., 80 Hz stimulation, Cisatracurium block): 64%

Compound: CCC(F)(F)c1cc(Br)ccc1O[C@@H](CF)C(=O)O [Compound A-11, (2R)-2-[4-bromo-2-(1,1-difluoropropyl)phenoxy]-3-fluoropropanoic acid]
- EC50 [3]: 1.6 ± 0.2 µM
- change in vivo at 17.6 mg/kg ([2]; 17.6 mg/kg i.v., 80 Hz stimulation, Cisatracurium block): 44%

Compound: CC(F)(F)c1cc(Br)ccc1O[C@@H](CF)C(=O)O [Compound A-16, (2R)-2-[4-bromo-2-(1,1-difluoroethyl)phenoxy]-3-fluoropropanoic acid]
- EC50 [3]: 3.2 ± 0.8 µM
- change in vivo at 22.9 mg/kg ([2]; 22.9 mg/kg i.v., 80 Hz stimulation, Cisatracurium block): 46%

Compound: CCC(F)(F)c1cc(Br)ccc1O[C@@H](CCl)C(=O)O [Compound A-17, (2R)-2-[4-bromo-2-(1,1-difluoropropyl)phenoxy]-3-chloropropanoic acid]
- activation at 50 µM [1, 4]: 48%

Compound: C#CC[C@H](Oc1ccc(Br)cc1C(F)(F)CC)C(=O)O [Compound A-18, (2S)-2-[4-bromo-2-(1,1-difluoropropyl)phenoxy]pent-4-ynoic acid]
- EC50 [3]: 4.8 ± 1.1 µM
- activation at 50 µM [1, 4]: 31%

Compound: C#CC[C@H](Oc1ccc(Cl)cc1C(C)(F)F)C(=O)O [Compound A-19, (2S)-2-[4-chloro-2-(1,1-difluoroethyl)phenoxy]pent-4-ynoic acid]
- activation at 50 µM [1, 4]: 27%

Compound: CCC(F)(F)c1cc(I)ccc1O[C@@H](C)C(=O)O [Compound A-20, (2S)-2-[2-(1,1-difluoropropyl)-4-iodophenoxy]propanoic acid]
- EC50 [3]: 1.9 µM
- activation at 50 µM [1, 4]: 44%

Compound: CCC(F)(F)c1cc(Br)c(F)cc1O[C@@H](C)C(=O)O [Compound A-24, (2S)-2-[4-bromo-2-(1,1-difluoropropyl)-5-fluorophenoxy]propanoic acid]
- EC50 [3]: 0.9 ± 0.2 µM

Compound: CCC(F)(F)c1cc(Br)c(F)cc1O[C@@H](CF)C(=O)O [Compound A-34, (2R)-2-[4-bromo-2-(1,1-difluoropropyl)-5-fluorophenoxy]-3-fluoropropanoic acid]
- EC50 [3]: 1.1 ± 0.2 µM

Compound: C=Cc1ccc(O[C@@H](C)C(=O)O)c(C(F)(F)CC)c1 [Compound A-35, (2S)-2-[2-(1,1-difluoropropyl)-4-ethenylphenoxy]propanoic acid]
- activation at 50 µM [1, 4]: 20%

Compound: CC(C)C(F)(F)c1cc(Br)ccc1OCC(=O)O [Compound A-38, 2-[4-bromo-2-(1,1-difluoro-2-methylpropyl)phenoxy]acetic acid]
- EC50 [3]: 7.4 µM

Compound: CCC(F)(F)c1cc(Cl)c(F)cc1OCC(=O)O [Compound A-39, 2-[4-chloro-2-(1,1-difluoropropyl)-5-fluorophenoxy]acetic acid]
- EC50 [3]: 7.9 ± 3.1 µM
- activation at 50 µM ([1]; Rattus norvegicus): 37%

Compound: CCC(F)(F)c1cc(Cl)c(F)cc1O[C@@H](CF)C(=O)O [Compound A-41, (2R)-2-[4-chloro-2-(1,1-difluoropropyl)-5-fluorophenoxy]-3-fluoropropanoic acid]
- EC50 [3]: 1.1 ± 0.4 µM

Compound: CCC(F)(F)c1cc(Cl)c(Cl)cc1O[C@@H](C)C(=O)O [Compound A-42, (2S)-2-[4,5-dichloro-2-(1,1-difluoropropyl)phenoxy]propanoic acid]
- EC50 [3]: 2.5 ± 0.3 µM
- activation at 50 µM ([1]; Rattus norvegicus): 30%

Compound: CC(F)(F)c1cc(Br)c(F)cc1O[C@@H](CF)C(=O)O [Compound A-43, (2R)-2-[4-bromo-2-(1,1-difluoroethyl)-5-fluorophenoxy]-3-fluoropropanoic acid]
- EC50 [3]: 2.9 ± 0.9 µM

Compound: CC(F)(F)c1cc(Cl)c(Cl)cc1O[C@@H](CF)C(=O)O [Compound A-44, (2R)-2-[4,5-dichloro-2-(1,1-difluoroethyl)phenoxy]-3-fluoropropanoic acid]
- activation at 50 µM [1, 4]: 24%

Compound: C=Cc1cc(C(F)(F)CC)c(O[C@@H](C)C(=O)O)cc1F [Compound A-47, (2S)-2-[2-(1,1-difluoropropyl)-4-ethenyl-5-fluorophenoxy]propanoic acid]
- activation at 50 µM [1, 4]: 31%

Compound: CC[C@H](Oc1cc(F)c(Br)cc1C(F)(F)CC)C(=O)O [Compound A-48, (2S)-2-[4-bromo-2-(1,1-difluoropropyl)-5-fluorophenoxy]butanoic acid]
- EC50 [3]: 2 µM

Compound: CC[C@H](Oc1cc(F)c(Cl)cc1C(F)(F)CC)C(=O)O [Compound A-49, (2S)-2-[4-chloro-2-(1,1-difluoropropyl)-5-fluorophenoxy]butanoic acid]
- activation at 50 µM [1, 4]: 24%

Compound: CCC(F)(F)c1cc([N+](=O)[O-])ccc1O[C@@H](C)C(=O)O [Compound A-51, (2S)-2-[2-(1,1-difluoropropyl)-4-nitrophenoxy]propanoic acid]
- activation at 50 µM [1, 4]: 37%

Compound: CCC(F)(F)c1cc(F)c(F)cc1O[C@@H](CF)C(=O)O [Compound A-54, (2R)-2-[2-(1,1-difluoropropyl)-4,5-difluorophenoxy]-3-fluoropropanoic acid]
- activation at 50 µM [1, 4]: 36%

Compound: (2S)-2-[4-bromo-2-(1,1-difluoropropyl)(3,5,6-^2H3)phenoxy]propanoic acid [Compound A-30]
- Point increase (%) of initial force that was restored [1, 4]: 44%

Compound: (2S)-2-[4-bromo-2-(1,1-difluoropropyl)phenoxy](2-^2H)propanoic acid [Compound A-21]
- EC50 [3]: 2.6 µM
- Point increase (%) of initial force that was restored [1, 4]: 44%
